# Experimental data taken from the supplement of paper PMC11208160.
# Assay: recombinant UMI read abundance after kanamycin selection (control-corrected) (log10(CPM+1)); higher = more efficient recombination; extreme values may be limits of the assay; sequences stand for … in AGTGCAGAGAAAATCGGCCAGTTTTCTCTGCCTGCAGTCCGCATGCCGTGGGACCCCTTGGGTTCTAACCTGTTGCCTAGATTTATGCAGCGGACTGCCTTTCTCCCAAAGTGATAAACCGG…AGGTTGGTTTCACT; site = the 11-nt donor
# Summary of the method: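 Two replicates each of selected and unselected plating were used in this pooled Escherichia coli screen of donor and donor-binding-loop pairs for the IS621 bridge recombinase. Selection was with IPTG (0.07 mM) and kanamycin. Counts of recombinant UMIs, amplified across the donor–target junction, were converted to CPM, averaged, scaled by control-derived factors and reported as log10(CPM+1).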
# 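Note: IS621 bridge recombinase in Escherichia coli cells against a fixed T5 target plasmid.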
row,Sequence,recombinant UMI read abundance (log10)
1,TTAGTCGCATGGACCGGTTTTCCCGGTAATCCGTATTTGCG (site CTAGTCGCTCG),0.00978
2,TTAGTCGCATGGACCGGTTTTCCCGGTAATCCGTATTTGCG (site GTAGTCGCTCG),0.00638
3,TTAGTCGCATGGACCGGTTTTCCCGGTAATCCGTATTTGCG (site TTAGTCGCTCG),0.224
4,TTAGTTACATGGACCGGTTTTCCCGGTAATCCGTATTTGGC (site TTAGTTACTGC),0.857
5,TTATCATCATGGACCGGTTTTCCCGGTAATCCGTATTTGCA (site TTATCATCTTG),1.53
6,TTATCGTCATGGACCGGTTTTCCCGGTAATCCGTATTTGGC (site TTATCGTCTGC),1.36
7,TTATCTGCATGGACCGGTTTTCCCGGTAATCCGTATTTGAT (site TTATCTGCTAT),0.557
8,TTATGCACATGGACCGGTTTTCCCGGTAATCCGTATTTGTA (site ATATGCACTTA),0.0128
9,TTATGCACATGGACCGGTTTTCCCGGTAATCCGTATTTGTA (site CTATGCACTTA),0.34
10,TTATGCACATGGACCGGTTTTCCCGGTAATCCGTATTTGTA (site GTATGCACTTA),0.0305
11,TTATGCACATGGACCGGTTTTCCCGGTAATCCGTATTTGTA (site TTATGCACTTA),0.769
12,TTATTCCCATGGACCGGTTTTCCCGGTAATCCGTATTTGCA (site TTATTCCCTTG),0
13,TTCAATGCATGGACCGGTTTTCCCGGTAATCCGTATTTGCA (site TTCAATGCTTG),0
14,TTCAGAGCATGGACCGGTTTTCCCGGTAATCCGTATTTGCC (site TTCAGAGCTGG),0
15,TTCAGCTCATGGACCGGTTTTCCCGGTAATCCGTATTTGGT (site TTCAGCTCTAC),0.00826
16,TTCAGTGCATGGACCGGTTTTCCCGGTAATCCGTATTTGGC (site TTCAGTGCTGC),0
17,TTCATACCATGGACCGGTTTTCCCGGTAATCCGTATTTGCC (site TTCATACCTGG),0
18,TTCCAGACATGGACCGGTTTTCCCGGTAATCCGTATTTGTA (site TTCCAGACTTA),0.13
19,TTCCCGCCATGGACCGGTTTTCCCGGTAATCCGTATTTGTT (site TTCCCGCCTAA),0.00311

row,Sequence,recombinant UMI read abundance (log10)
1,TTCCGCGCATGGACCGGTTTTCCCGGTAATCCGTATTTGCC (site TTCCGCGCTGG),0.632
2,TTCCTAGCATGGACCGGTTTTCCCGGTAATCCGTATTTGAA (site TTCCTAGCTTT),0.0135
3,TTCCTATCATGGACCGGTTTTCCCGGTAATCCGTATTTGCA (site TTCCTATCTTG),1.53
4,TTCGAGCCATGGACCGGTTTTCCCGGTAATCCGTATTTGAC (site TTCGAGCCTGT),0
5,TTCGCGGCATGGACCGGTTTTCCCGGTAATCCGTATTTGCT (site TTAGCGGCTAG),0.33
6,TTCGCGGCATGGACCGGTTTTCCCGGTAATCCGTATTTGCT (site TTCGCGGCTAG),0.587
7,TTCGCGGCATGGACCGGTTTTCCCGGTAATCCGTATTTGCT (site TTGGCGGCTAG),0.00776
8,TTCGCGGCATGGACCGGTTTTCCCGGTAATCCGTATTTGCT (site TTTGCGGCTAG),0.0106
9,TTCGCTGCATGGACCGGTTTTCCCGGTAATCCGTATTTGTG (site TTAGCTGCTCA),0.018
10,TTCGCTGCATGGACCGGTTTTCCCGGTAATCCGTATTTGTG (site TTCGCTGCTCA),0.0258
11,TTCGCTGCATGGACCGGTTTTCCCGGTAATCCGTATTTGTG (site TTGGCTGCTCA),0.0131
12,TTCGCTGCATGGACCGGTTTTCCCGGTAATCCGTATTTGTG (site TTTGCTGCTCA),0.00847
13,TTCGTAACATGGACCGGTTTTCCCGGTAATCCGTATTTGAA (site GCTCGGCCTCC),0.019
14,TTCTAGACATGGACCGGTTTTCCCGGTAATCCGTATTTGTT (site TTCTAGACTAA),0.0133
15,TTCTATACATGGACCGGTTTTCCCGGTAATCCGTATTTGAC (site ATCTATACTGT),0
16,TTCTATACATGGACCGGTTTTCCCGGTAATCCGTATTTGAC (site CTCTATACTGT),0
17,TTCTATACATGGACCGGTTTTCCCGGTAATCCGTATTTGAC (site GTCTATACTGT),0
18,TTCTATACATGGACCGGTTTTCCCGGTAATCCGTATTTGAC (site TTCTATACTGT),0.00704
19,TTCTCCACATGGACCGGTTTTCCCGGTAATCCGTATTTGGA (site TTCTCCACTTC),0.00322

row,Sequence,recombinant UMI read abundance (log10)
1,TTCTCGACATGGACCGGTTTTCCCGGTAATCCGTATTTGTC (site TTCTCGACTGA),0
2,TTCTTAGCATGGACCGGTTTTCCCGGTAATCCGTATTTGTT (site TTCTTAGCTAA),0.0119
3,TTGACCACATGGACCGGTTTTCCCGGTAATCCGTATTTGCC (site TTGACCACTGG),1.79
4,TTGAGCGCATGGACCGGTTTTCCCGGTAATCCGTATTTGCC (site TTGAGCGCTGG),1.9
5,TTGAGGCCATGGACCGGTTTTCCCGGTAATCCGTATTTGAC (site TTGAGGCCTGT),0
6,TTGATAACATGGACCGGTTTTCCCGGTAATCCGTATTTGGG (site TTGATAACTCC),0.00616
7,TTGCATACATGGACCGGTTTTCCCGGTAATCCGTATTTGGA (site TTGCATACTTC),0.121
8,TTGCGCACATGGACCGGTTTTCCCGGTAATCCGTATTTGTG (site TTGCGCACTCA),0.0258
9,TTGGAGGCATGGACCGGTTTTCCCGGTAATCCGTATTTGTG (site ATGGAGGCTCA),0.342
10,TTGGAGGCATGGACCGGTTTTCCCGGTAATCCGTATTTGTG (site CTGGAGGCTCA),0.329
11,TTGGAGGCATGGACCGGTTTTCCCGGTAATCCGTATTTGTG (site GTGGAGGCTCA),0.0131
12,TTGGAGGCATGGACCGGTTTTCCCGGTAATCCGTATTTGTG (site TTGGAGGCTCA),0.791
13,TTGGGGCCATGGACCGGTTTTCCCGGTAATCCGTATTTGAA (site TTGGGGCCTTT),0.00375
14,TTGGTCACATGGACCGGTTTTCCCGGTAATCCGTATTTGAA (site TTGGTCACTTT),0.29
15,TTGGTCCCATGGACCGGTTTTCCCGGTAATCCGTATTTGAA (site TTGGTCCCTTT),0.00683
16,TTGGTGGCATGGACCGGTTTTCCCGGTAATCCGTATTTGGC (site TTGGTGGCTGC),1.84
17,TTGTTGCCATGGACCGGTTTTCCCGGTAATCCGTATTTGGT (site TTGTTGCCTAC),0.0353
18,TTGTTTGCATGGACCGGTTTTCCCGGTAATCCGTATTTGAG (site TTGTTTGCTCT),0.442
19,TTTACACCATGGACCGGTTTTCCCGGTAATCCGTATTTGAC (site TATACACCTGT),0
